Here are results for one compound from patent US6521179B1, “Sterilization” (Biomedical Design, Inc., priority 1999, dated 2003).

Experiment [1] relates to Bacillus Subtilis (ATCC 9372)spores. Description: Sterilization of spores inoculated in cups with cross-linked porcine heart valve leaflets (Example 1). The conditions noted are these: EDC 25 mM, 50 mM and 70 mM, 100 mM ethanolamine, 20% isopropyl alcohol, HEPES pH 6.5, 40° C., after one day. The format is cell-based. How it is done: When porcine aortic roots that are fixed are employed, they are cross-linked according to the method described in U.S. Pat. No. 5,447,536 or glutaraldehyde-fixed or cross-linked or fixed with any other method used to preserve tissue. After fixation, the tissue is stored in 10 mM HEPES, 0.85% NaCl, 20% isopropyl alcohol, pH 7.4, at 4° C. The sterility tests described in the following examples are conducted in the presence of bovine pericardium or porcine heart valve tissue. After such tissue is inoculated with microorganisms for test purposes and then submitted to sterilization, the solution is filtered through a 0.45 micron filter attached to a funnel (filter funnel). The tissue is washed for 20 minutes in a reciprocating shaker in the presence of peptone water containing Tween 80 in order to extract all indigenous spores or microorganisms from the tissue. This solution is then filtered through the same respective filter. The filters are then rinsed with peptone water to eliminate residual chemicals on the membrane that may prevent growth of the organisms tested. The membrane filters are incubated on solid agar TSA plates (Millipore) at about 32° to 33° C., e.g. 32.5° C. All microbiological testing is performed in a biological laminar flow hood to prevent contamination. […]

The subject of a further experiment is spores Bacillus subtilis. Briefly: Sterilization efficacy of EDC with blocking agents, spores in glass ampoules (Example 3). The format is cell-based. The conditions noted are these: EDC in HEPES buffer containing 20% isopropyl alcohol, in the presence or absence of tissue. The protocol: EDC sterilization in HEPES buffer containing 20% isopropyl alcohol, carried out either in the presence or in the absence of tissue, leads to complete kill of the spores Bacillus subtilis. The following experiment was designed to test whether the sterilization efficacy of EDC remains substantially unaffected by the presence of […]. […] After 10 minutes, 10 mL of Solutions A, B, C, D, E and F containing 25 mM EDC were added, the ampoules were heat-sealed and placed at 40° C. After 24 hours, the solutions from the ampoules were filtered to recover the spores, the filters were washed with 0.1% peptone water, and these were incubated on TSA plates for up to 10 days at 32° C. to 33° C., after which the colonies were enumerated.

Experiment [2] is described as follows: EDC sterilization of pretreated cross-linked porcine aortic root tissue without lower alkanol. The conditions noted are these: tissue pretreated with acetic anhydride or a mixture of TRIS and isopropylamine; absence of a lower alkanol.

With `CCN=C=NCCCN(C)C.Cl` [EDC, 1-ethyl-3(3-dimethylaminopropyl) carbodiimide hydrochloride], the kill of spores entry (in experiment [1]; with spores Bacillus subtilis) was “complete kill” in each case. Further, the “sterilization of tissue samples” value in experiment [2] is given as “effectively sterilized”.
